Source: patent publication US11684593B2 (GENEHEAL BIOTECHNOLOGY CO., LTD., priority 2017, dated 2023)

Legend:
PAICS = PAICS (Homo sapiens, UniProt P22234)
oncogene myc = conditions: Western Blot, FIG. 4
[1] = system: lung cancer cell strain A549; test: cells; conditions: Homo sapiens, A549, 48 h
[2] = system: lung cancer cell strain H1299; test: cells; conditions: Homo sapiens, NCI-H1299, 48 h
[3] = system: breast cancer cell strain MD468; test: cells; conditions: 48 h
[4] = system: breast cancer cell strain MD231; test: cells; conditions: 48 h

Sequence of PAICS (P22234 whole entry): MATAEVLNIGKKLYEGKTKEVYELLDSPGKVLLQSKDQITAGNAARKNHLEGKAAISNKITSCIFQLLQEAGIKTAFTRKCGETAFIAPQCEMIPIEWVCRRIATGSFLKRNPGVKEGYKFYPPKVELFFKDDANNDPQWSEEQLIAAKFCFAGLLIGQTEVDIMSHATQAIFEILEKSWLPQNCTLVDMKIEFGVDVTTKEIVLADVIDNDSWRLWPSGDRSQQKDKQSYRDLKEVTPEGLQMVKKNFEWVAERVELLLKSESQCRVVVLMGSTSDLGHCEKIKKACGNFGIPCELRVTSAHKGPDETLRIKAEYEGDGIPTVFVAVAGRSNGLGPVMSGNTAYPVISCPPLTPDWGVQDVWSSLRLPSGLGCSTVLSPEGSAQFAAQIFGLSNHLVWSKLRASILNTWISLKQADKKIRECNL

NCCCNCCCCNCCCN [spermine]
inhibition of the accumulation of SAICAR (PAICS): up to 71.1%
expression of oncogene myc (oncogene myc): significantly down-regulated
IC50 [1]: 117 µM
IC50 [2]: 25.2 µM
IC50 [3]: 38 µM
IC50 [4]: 3.55 µM
